The results in this text go back to ChEMBL document CHEMBL1153562, “Are all the DNA gyrase mutations found in Mycobacterium leprae clinical strains involved in resistance to fluoroquinolones?” (Antimicrob Agents Chemother, 2008).

In brackets after ≈: the same amount, converted by molar mass. Activity calls are given as the source filed them. The rule behind the calls is not given here.

The test system of assay [1] is Mycobacterium leprae. Description: Inhibition of Mycobacterium leprae wild type DNA gyrase A2B2 assessed as DNA supercoiling inhibition.
The subject of assay [2] is Mycobacterium leprae. As to the kind of experiment: Inhibition of Mycobacterium leprae DNA gyrase subunit A G89C mutant assessed as DNA supercoiling inhibition.
The test system of assay [3] is Mycobacterium leprae. As to the kind of experiment: Inhibition of Mycobacterium leprae DNA gyrase subunit A A91V mutant assessed as DNA supercoiling inhibition.
Assay [4] relates to Mycobacterium leprae. As to the kind of experiment: Inhibition of Mycobacterium […] B D205N mutant assessed as DNA supercoiling inhibition.
In assay [5] the test system is Mycobacterium leprae. As to the kind of experiment: Inhibition of Mycobacterium leprae wild type DNA gyrase A2B2 assessed as formation of DNA cleavable complex.
In assay [6] the test system is Mycobacterium leprae. As to the kind of experiment: (§1) Inhibition of Mycobacterium […] A A91V mutant assessed as formation of DNA cleavable complex.
In assay [7] the test system is Mycobacterium leprae. As to the kind of experiment: Selectivity index, ratio of CC25 for Mycobacterium leprae DNA gyrase subunit A A91V mutant to CC25 for Mycobacterium leprae wild type DNA gyrase A2B2 by DNA cleavage assay.
The test system of assay [8] is Mycobacterium leprae. As to the kind of experiment: Selectivity index, ratio of IC50 for Mycobacterium leprae DNA gyrase subunit A A91V mutant to IC50 for Mycobacterium leprae wild type DNA gyrase A2B2.
The test system of assay [9] is Mycobacterium leprae. Description: Selectivity index, ratio of IC50 for Mycobacterium leprae DNA gyrase subunit A G89C mutant to IC50 for Mycobacterium leprae wild type DNA gyrase A2B2.
The test system of assay [10] is Mycobacterium leprae [A91V]. The description is as §1.
The subject of assay [11] is Mycobacterium leprae. Description: Inhibition of Mycobacterium […] B D205N mutant assessed as formation of DNA cleavable complex.

Broadly, the IC50 is the concentration at which inhibition is half-maximal. For the molecule `C[C@H]1NCc2cc(-c3ccc4c(=O)c(C(=O)O)cn(C5CC5)c4c3OC(F)F)ccc21` [GARENOXACIN], the IC50 in assay [1] turned out to be 6 µg/mL (≈ 14.1 µM); in assay [2], 5 µg/mL (≈ 11.7 µM); in assay [3] it was 8 µg/mL (≈ 18.8 µM); in assay [4], 16 µg/mL (≈ 37.5 µM). Also, the results for the CC25 in assay [5] and in [6] were 1 µg/mL (≈ 2.35 µM) and 17 µg/mL (≈ 39.9 µM), respectively. In addition, the fold change (FC) in assay [7] was found to be 17.

In the case of `COc1c(N2CCNC(C)C2)c(F)cc2c(=O)c(C(=O)O)cn(C3CC3)c12` (stereo unspecified) [GATIFLOXACIN], the IC50 in assay [1] is 3.5 µg/mL (≈ 9.32 µM); in assay [2], 20 µg/mL (≈ 53.3 µM); in assay [3], 20 µg/mL (≈ 53.3 µM); in assay [4] it was 4.5 µg/mL (≈ 12 µM). The CC25 in assay [5] was determined as 0.3 µg/mL (≈ 0.799 µM); in [6] it was 4 µg/mL (≈ 10.7 µM). Besides, the “fold change (FC)” value was 5 in [8] and 12 in assay [7].

For `COc1c(N2C[C@@H]3CCCN[C@@H]3C2)c(F)cc2c(=O)c(C(=O)O)cn(C3CC3)c12` [MOXIFLOXACIN], the IC50 in [1] was found to be 6 µg/mL (≈ 14.9 µM); in assay [2] it was 30 µg/mL (≈ 74.7 µM); in assay [3], 25 µg/mL (≈ 62.3 µM). Also, the entries for the “fold change (FC)” value in [9] and in assay [8] were 3 and 5, respectively.

As to `CCn1cc(C(=O)O)c(=O)c2ccc(C)nc21` [NALIDIXIC ACID], the IC50 was determined as 150 µg/mL (≈ 646 µM) in assay [2], 170 µg/mL (≈ 732 µM) in [3] and 600 µg/mL (≈ 2580 µM) in assay [4]. In addition, the CC25 result in [5], in assay [10] and in assay [11] was “inactive” throughout.

On to `CO[C@@H]1[C@@H](OC(N)=O)[C@@H](O)[C@H](Oc2ccc3c(O)c(NC(=O)c4ccc(O)c(CC=C(C)C)c4)c(=O)oc3c2C)OC1(C)C` [NOVOBIOCIN], for which the 50% inhibitory concentration (IC50) was found to be 0.25 µg/mL (≈ 0.408 µM) in assay [1], 0.3 µg/mL (≈ 0.49 µM) in assay [2], 0.2 µg/mL (≈ 0.326 µM) in assay [3] and 0.3 µg/mL (≈ 0.49 µM) in assay [4].

Consider `CC1COc2c(N3CCN(C)CC3)c(F)cc3c(=O)c(C(=O)O)cn1c23` (stereo unspecified) [OFLOXACIN], for which the IC50 in assay [1] stood at 15 µg/mL (≈ 41.5 µM); in [2] it was 160 µg/mL (≈ 443 µM); in assay [3], 80 µg/mL (≈ 221 µM); in [4], 20 µg/mL (≈ 55.3 µM). The CC25 amounted to 9 µg/mL (≈ 24.9 µM) in assay [5], 110 µg/mL (≈ 304 µM) in assay [6] and 8 µg/mL (≈ 22.1 µM) in assay [11]. In addition, the “fold change (FC)” value was determined as 5 in assay [8] and 12 in [7].

Turning to `CCn1cc(C(=O)O)c(=O)c2cc3c(cc21)OCO3` [OXOLINIC ACID], the IC50 in assay [1] amounted to 400 µg/mL (≈ 1530 µM); in assay [2], 180 µg/mL (≈ 689 µM); in assay [3], 200 µg/mL (≈ 766 µM); in [4], 700 µg/mL (≈ 2680 µM). Further, the CC25 entry in [5], in assay [10] and in assay [11] was “inactive” throughout.
